The subject of assay [1] is beta-TC6 cells. Nature of the assay: Insulin release by beta-TC6 cells in high glucose medium, rat/mouse insulin ELISA. It is filed as cell-based. The following applies: 2 h; for Insulin release by beta-TC6 cells at 5µM [%]: 5 µM compound, high glucose (4.5 g/L) DMEM, % increase in regard to the DMSO control (set at 0%). How it is done:
After having identified the most promising compounds acting as GRK5 inhibitors and determined the IC50 values, the effect of the compounds of the example 2 on the release of insulin by beta-TC6 was determined. […] Release of insulin was detected using a rat/mouse insulin ELISA.
To order to measure the insulin released by beta-TC6 insulinoma (mouse) cells upon treatment with the compounds of the present invention, beta-TC6 insulinoma (mouse)cells were washed and incubated for 2 h in high (4.5 g/L) or low (1.125 g/L) glucose media at 37 °C. After incubation, the supernatant of the beta-TC6 insulinoma cells was diluted 1:20. The insulin release was measured with rat/mouse insulin ELISA (Merck Millipore Darmstadt, Cat. # EZRMI-13K) by following the manufacture protocol. The enzyme activity of the horseradish peroxidase of the immobilized biotinylated antibodies was monitored spectrophotometrically by the increased absorbency at 490 nm, and corrected by the absorbency at 610 nm. […] Table 3: Insulin release by beta-TC6 cells treated with the compounds of the present invention (the % values are in regard to the DMSO control, thus 30% means an increase of insulin release of 30% in regard to the physiological conditions where the insulin release is set at 0%)

Assay [2] deals with beta-TC6 cells. Nature of the assay: Insulin HTRF assay (relative activity Ar) in beta-TC6 cells. The class given is cell-based, mouse. To be noted: Mus musculus, Beta-TC6, 4 h, insulin HTRF, supernatant of beta-TC6 cells, incubation with test compound at 37°C for 2, 3, 4h; read-out: Ar (relative activity). In short, it runs like this:
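beta-TC6 cells (15k/well, seeded 24 or 48 h) washed, then exposed to compound in induction buffer (0.5% DMSO final) for 2, 3 or 4 h at 37°C.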

For assay [3], the system named is C2C12 cells. Nature of the assay: 2-NBDG glucose uptake in C2C12 cells, flow cytometry. It is filed as cell-based. The following applies: 5 µM compound, 1 h, glucose free media with 100 µM 2-NBDG. The protocol: To investigate the impact of the GRK5 inhibitors on glucose uptake, the fluorescent D-glucose analog 2-[N-(7-nitrobenz-2-oxa-1,3-diazol-4-yl)-amino]-2-deoxy-D-glucose (2-NBDG) was used. 2-NBDG is a fluorescently-labeled deoxyglucose analog that is commonly used to directly monitor glucose uptake by living cells. For 2-NBDG detection, cells were cultured for 1 h together with 5 µM of an inventive compound in glucose free media supplied with 100 µM 2-NBDG at 37 °C before collecting. Furthermore, as internal controls, samples of glucose free media, respectively glucose free media with test compound, were tested. Subsequently, cells were washed, trypsinized and harvested in ice-cold PBS before centrifuged at 1.6 x10^3 rpm at 4°C. Cells were analyzed by flow cytometry (FACS Calibur, BD Bioscience, respectively a BD Accuri® C6 Flow Cytometer). For evaluation, cells were gated using the side- and forward scatter SSC/FSC and quantified by excited at 488 nm and collected at […] (FL1). Table 4: 2-NBDG glucose uptake (%) by cells treated with the compounds of the present application

Molecules are shown by their SMILES. Where only a bound is given, the exact number is not on record here.

As to `COc1ccc(-c2nc3c(Nc4ccc(OC)c(OC)c4)nccc3[nH]2)cc1` [Compound 392, N-(3,4-dimethoxyphenyl)-2-(4-methoxyphenyl)-1H-imidazo[4,5-c]pyridin-4-amine], the “Insulin release by beta-TC6 cells at 5µM [%]” value (“Insulin release … [%]” below) in assay [1] is 30.52%. Besides, the Emax in assay [2] is 50 to 100%. Turning to `CN1CCN(c2ccc(Nc3cc4[nH]c(-c5cccc(N)c5)cc4cn3)cc2)CC1` [Compound 3, 2-(3-aminophenyl)-N-[4-(4-methylpiperazin-1-yl)phenyl]-1H-pyrrolo[3,2-c]pyridin-6-amine], the “Insulin release … [%]” value in assay [1] is recorded as 15.43%. In assay [3], the “2-NBDG Glucose Uptake [%]” value worked out at 38.51%. Also, in assay [2], the Emax was greater than 100%. As to `NC(=O)c1ccc(Nc2cc3[nH]c(-c4cccc(F)c4)cc3cn2)cc1` [Compound 6, 4-[[2-(3-fluorophenyl)-1H-pyrrolo[3,2-c]pyridin-6-yl]amino]benzamide], in assay [1], the “Insulin release … [%]” value worked out at 81.25%. In assay [1] (5 µM, high glucose (4.5 g/L)), the “effect on the insulin release by beta-TC6 cells compared with the positive control Sunitinib” value is “level similar to Sunitinib”. Also, the “2-NBDG Glucose Uptake [%]” value in assay [3] came to 45.35%. Further, the Emax in assay [2] lay in the range of 50 to 100%. As for `COc1ccc(Nc2cc3c(cn2)cc(-c2cnn(C)c2)n3C)cc1` [Compound 137, N-(4-methoxyphenyl)-1-methyl-2-(1-methylpyrazol-4-yl)pyrrolo[3,2-c]pyridin-6-amine], in assay [3], the “2-NBDG Glucose Uptake [%]” value came out at 69.73%. In assay [2], the Emax lay within 50 to 100%.

Consider `COc1ccc(Nc2nccc3[nH]c(-c4cccc(OC)c4F)nc23)cc1` [Compound 475, 2-(2-fluoro-3-methoxy-phenyl)-N-(4-methoxyphenyl)-1H-imidazo[4,5-c]pyridin-4-amine], for which, in assay [1], the “Insulin release … [%]” value worked out at 48.72%. Moreover, the Emax in assay [2] is 50 to 100%. With `Cn1c(-c2cccnc2)cc2cnc(Nc3ccc4c(c3)OCO4)cc21` [Compound 93, N-(1,3-benzodioxol-5-yl)-1-methyl-2-(3-pyridyl)pyrrolo[3,2-c]pyridin-6-amine], in assay [2], the Emax lay in the range of 50 to 100%. The same measure, in the same setting: in the case of `CC(=O)Nc1ccc(Nc2cc3c(cn2)nc(-c2cccc(F)c2)n3C)cc1` [Compound 713, N-[4-[[2-(3-fluorophenyl)-1-methyl-imidazo[4,5-c]pyridin-6-yl]amino]phenyl]acetamide] it was 50 to 100%; in that of `CNc1nc2cnc(Nc3ccc4c(c3)OCCO4)cc2n1Cc1cccnc1` [Compound 561, N6-(2,3-dihydro-1,4-benzodioxin-6-yl)-N2-methyl-1-(3-pyridylmethyl)imidazo[4,5-c]pyridine-2,6-diamine], greater than 100%; in that of `Cn1c(-c2ccccc2)cc2c(Nc3cccc(O)c3)nccc21` [Compound 328, 3-[(1-methyl-2-phenyl-pyrrolo[3,2-c]pyridin-4-yl)amino]phenol], 30 to 50%. Still for that read-out and setting: in the case of `COc1ccc(Nc2cc3c(cn2)nc(NCc2ccc(OC)c(OC)c2)n3C)cc1` [Compound 606, N2-[(3,4-dimethoxyphenyl)methyl]-N6-(4-methoxyphenyl)-1-methyl-imidazo[4,5-c]pyridine-2,6-diamine] it was 50 to 100%; in that of `FC(F)(F)Oc1cccc(-c2nc3c(N4CCOCC4)nccc3[nH]2)c1` [Compound 446, 4-[2-[3-(trifluoromethoxy)phenyl]-1H-imidazo[4,5-c]pyridin-4-yl]morpholine], 30 to 50%. `Cc1cccc(Nc2nccc3c2cc(-c2cccnc2)n3C)c1` [Compound 241, 1-methyl-N-(m-tolyl)-2-(3-pyridyl)pyrrolo[3,2-c]pyridin-4-amine]: the Emax in assay [2] fell in the range of 0 to 30%. Consider `CC(=O)N(C)c1cccc(-c2cc3cnc(Nc4ccc5c(c4)OCO5)cc3n2C)c1` [Compound 169, N-[3-[6-(1,3-benzodioxol-5-ylamino)-1-methyl-pyrrolo[3,2-c]pyridin-2-yl]phenyl]-N-methyl-acetamide], for which the Emax in assay [2] was in the range of 30 to 50%.

Consider `Cn1c(NCc2ccccc2F)nc2cnc(-c3ccc(N4CCOCC4)cc3)cc21` [Compound 653, N-[(2-fluorophenyl)methyl]-1-methyl-6-(4-morpholinophenyl)imidazo[4,5-c]pyridin-2-amine], for which the Emax in assay [2] lay within 50 to 100%. With `CN(C)c1cccc(-c2cc3c(cn2)ncn3-c2cccc(F)c2)c1` [Compound 740, 3-[1-(3-fluorophenyl)imidazo[4,5-c]pyridin-6-yl]-N,N-dimethyl-aniline], in assay [2], the Emax was 50 to 100%. With `Cn1c(NCC2CC2)nc2cnc(-c3cccc(Oc4ccccc4)c3)cc21` [Compound 758, N-(cyclopropylmethyl)-1-methyl-6-(3-phenoxyphenyl)imidazo[4,5-c]pyridin-2-amine], in assay [2], the Emax was 0 to 30%. On the same count and under the same terms, the value for `COc1ccc(Nc2nccc3[nH]c(-c4cccc(OC)c4)nc23)cc1` [Compound 372, 2-(3-methoxyphenyl)-N-(4-methoxyphenyl)-1H-imidazo[4,5-c]pyridin-4-amine] was 50 to 100%.

As to `Cn1c(-c2cccnc2)cc2cnc(Nc3ccccc3)cc21` [Compound 88, 1-methyl-N-phenyl-2-(3-pyridyl)pyrrolo[3,2-c]pyridin-6-amine], the Emax in assay [2] is 30 to 50%. On to `c1csc(-c2nc3ccncc3[nH]2)c1` [Compound 743, 2-(2-thienyl)-3H-imidazo[4,5-c]pyridine], for which, in assay [2], the Emax was 30 to 50%. Consider `CC(=O)N(C)c1cccc(-c2cc3c(Nc4ccc(OC(F)(F)F)cc4)nccc3n2C)c1` [Compound 248, N-methyl-N-[3-[1-methyl-4-[4-(trifluoromethoxy)anilino]pyrrolo[3,2-c]pyridin-2-yl]phenyl]acetamide], for which the Emax in assay [2] was in the range of 0 to 30%. Turning to `COc1cc(Nc2nccc3[nH]c(-c4ccc5c(c4)OCCO5)nc23)cc(OC)c1OC` [Compound 409, 2-(2,3-dihydro-1,4-benzodioxin-6-yl)-N-(3,4,5-trimethoxyphenyl)-1H-imidazo[4,5-c]pyridin-4-amine], the Emax in assay [2] was 50 to 100%.

With `COc1ccccc1-c1cc2c(Nc3ccccn3)nccc2n1C` [Compound 304, 2-(2-methoxyphenyl)-1-methyl-N-(2-pyridyl)pyrrolo[3,2-c]pyridin-4-amine], the Emax in assay [2] fell in the range of 30 to 50%. Take `COCCNC(=O)c1cccc(-c2nc3c(Nc4cccc(OC)c4)nccc3[nH]2)c1` [Compound 386, 3-[4-(3-methoxyanilino)-1H-imidazo[4,5-c]pyridin-2-yl]-N-(2-methoxyethyl)benzamide]: in assay [2], the Emax lay within 50 to 100%. With `CNc1nc2cnc(Nc3ccc4c(c3)OCO4)cc2n1Cc1ccccc1` [Compound 534, N6-(1,3-benzodioxol-5-yl)-1-benzyl-N2-methyl-imidazo[4,5-c]pyridine-2,6-diamine], the Emax in assay [2] lay within 50 to 100%. For `COCCNc1nc2cnc(Nc3cc(OC)c(OC)c(OC)c3)cc2n1C` [Compound 645, N2-(2-methoxyethyl)-1-methyl-N6-(3,4,5-trimethoxyphenyl)imidazo[4,5-c]pyridine-2,6-diamine], in assay [2], the Emax lay in the range of 30 to 50%. On to `CNc1nc2cnc(Nc3cccc(OC(C)C)c3)cc2n1Cc1ccc(OC)c(OC)c1` [Compound 676, 1-[(3,4-dimethoxyphenyl)methyl]-N6-(3-isopropoxyphenyl)-N2-methyl-imidazo[4,5-c]pyridine-2,6-diamine], for which the Emax in assay [2] lay within 30 to 50%. `COc1ccc(Cn2cnc3cnc(-c4cccnc4)cc32)cc1OC` [Compound 737, 1-[(3,4-dimethoxyphenyl)methyl]-6-(3-pyridyl)imidazo[4,5-c]pyridine]: in assay [2], the Emax was 50 to 100%. The same measure, in the same setting: the value for `COc1cccc(-c2nc3c(Nc4cccc(O)c4)nccc3[nH]2)c1F` [Compound 478, 3-[[2-(2-fluoro-3-methoxy-phenyl)-1H-imidazo[4,5-c]pyridin-4-yl]amino]phenol] was 50 to 100%. On to `COc1cc(Nc2cc3[nH]c(-c4ccccn4)cc3cn2)cc(OC)c1OC` [Compound 62, 2-(2-pyridyl)-N-(3,4,5-trimethoxyphenyl)-1H-pyrrolo[3,2-c]pyridin-6-amine], for which the Emax in assay [2] is greater than 100%. `COc1cc(Nc2cc3c(cn2)nc(Cc2ccccc2)n3C)cc(OC)c1OC` [Compound 699, 2-benzyl-1-methyl-N-(3,4,5-trimethoxyphenyl)imidazo[4,5-c]pyridin-6-amine]: the Emax in assay [2] was in the range of 50 to 100%.

As for `CN(C)C(=O)c1ccc(Nc2cc3[nH]c(-c4cccc(F)c4)cc3cn2)cc1` [Compound 14, 4-[[2-(3-fluorophenyl)-1H-pyrrolo[3,2-c]pyridin-6-yl]amino]-N,N-dimethyl-benzamide], the Emax in assay [2] fell in the range of 30 to 50%.

For the origin of these results see patent EP2818472A1, “Imidazo[4,5-c]pyridine and pyrrolo[3,2-c]pyridine compounds as G-protein-coupled receptor kinase 5 (GRK5) modulators” (Max-Planck-Gesellschaft zur Förderung der Wissenschaften …, priority 2013, dated 2014).
